This note sets out measurements from patent publication US20140155471A1, “TREATING NEUROLOGICAL DISEASE OR INJURY WITH A DYNAMIN-RELATED PROTEIN 1 (DRP1) ENCODING NUCLEIC ACID” (UNIVERSITY OF ROCHESTER, priority 2011, published 2014).

Data set [1] is described as follows: In vivo microdialysis and HPLC of mdivi-1 in striatal dialysate (blood-brain barrier crossing). Details: species or system mice. Here is the method:
Stereotactic implantation of guide cannula was performed under ketamine/xylazine (65/6 mg/kg i.p.) anesthesia using the following striatal coordinates, relative to bregma: anterior-posterior +0.5 mm, lateral −2.0 mm, dorsal-ventral −1.5 mm (from surface of brain). […] Samples from the same animals were measured for the contents of mdivi-1, MPP+, DA, and its metabolites. Levels of these molecules and the amount of KCl (delivered to the striatum) were calculated on the basis of the standard curves, probe efficiency (˜8%), flow rate, and duration of sample collection as described in Cui et al. “The organic cation transporter-3 is a pivotal modulator of neurodegeneration in the nigrostriatal dopaminergic pathway,” PNAS USA 106: 8043-8048 (2009).
(§1) A 12-channel CoulArray® (ESA Inc., Chelmsford, Mass.) equipped with a highly sensitive amperometric microbore cell (model 5041, ESA Inc.) was used to analyze the content of DA and its metabolites with the cell potential set at +220 mV as described in Cui et al. For measurements of total striatal DA content, mice were sacrificed and their striata were dissected out and stored at −80° C. until analysis. […] Peaks were detected by an ESA 8 Channel CoulArray® system. […]
The ability of Mitochondrial Division Inhibitor-1 (mdivi-1), a Drp1 inhibitor, to cross the blood-brain barrier was assessed. […]

The test system of data set [2] is MPTP mouse model of PD. Description: MPTP mouse model, neuroprotection (active neurodegeneration). The following applies: mdivi-1 delivered together with MPTP. The class given is in vivo, C57BL/6 mice. On the procedure:
For all studies, 10-12 week old male C57BL/6 mice were randomly assigned to receive intraperitoneal injections of either MPTP (25 mg/kg, Sigma, St. Louis, Mo.) or saline once daily for 5 days. For the neuroprotection studies, mice received twice daily i.p. injections (20 mg/kg) with mdivi-1 beginning on the day of the first MPTP injection and continued until mice were sacrificed 7 days after last MPTP injection. For the neurorescue studies, mice received twice daily i.p. injections (20 mg/kg) with mdivi-1 beginning 7 days after the last MPTP injection and continued for a total of 3 days. […]
(§2) Brains from saline and MPTP treated mice were sectioned (30 μm) and processed for stereological cell counts using the optical fractionator method as described 35. Striatal optical densities of TH immunoreactivity were also quantified.
as §1

Data set [3] deals with Pink1-/- mice. Put plainly: Depolarization (KCl)-evoked striatal DA overflow by in vivo microdialysis in Pink1-/- and Pink1+/+ mice. To be noted: mdivi-1 i.p. twice daily for 3 days.
Description: Stereotactic implantation of guide cannula was performed under ketamine/xylazine (65/6 mg/kg i.p.) anesthesia using the following striatal coordinates, relative to bregma: anterior-posterior +0.5 mm, lateral −2.0 mm, dorsal-ventral −1.5 mm (from surface of brain). Twenty-four hours after recovery from surgery, a microdialysis probe (2-mm membrane, Bioanalytical Systems, Inc., West Lafayette, Ind.) was inserted into the guide cannula and connected to a low torque-dual channel swivel (Instech Laboratories, Inc., Plymouth Meeting, Pa.) which was connected to a syringe pump perfusing with artificial cerebrospinal fluid (aCSF) at 2 μL/min for all studies except mdivi-1 pharmacokinetic studies where the flow rate was 1 μL/min. […] Samples from the same animals were measured for the contents of mdivi-1, MPP+, DA, and its metabolites.
For data set [4], the system named is MPTP mouse model of PD. Put plainly: MPTP mouse model, neurorescue (treatment 7 days after last MPTP injection). The following applies: mdivi-1 i.p. twice daily for 3 days starting 7 days after last MPTP injection. The data set is classed as in vivo, C57BL/6 mice. Here is the method:
For all studies, 10-12 week old male C57BL/6 mice were randomly assigned to receive intraperitoneal injections of either MPTP (25 mg/kg, Sigma, St. Louis, Mo.) or saline once daily for 5 days. For the neuroprotection studies, mice received twice daily i.p. injections (20 mg/kg) with mdivi-1 beginning on the day of the first MPTP injection and continued until mice were sacrificed 7 days after last MPTP injection. For the neurorescue studies, mice received twice daily i.p. injections (20 mg/kg) with mdivi-1 beginning 7 days after the last MPTP injection and continued for a total of 3 days. To maximize the data yielded from each animal, mice were sacrificed by decapitation and the freshly removed brains were divided into 3 pieces for separate measures of nigrostriatal damage. […]
as §2
Stereotactic implantation of guide cannula was performed under ketamine/xylazine (65/6 mg/kg i.p.) anesthesia using the following striatal coordinates, relative to bregma: anterior-posterior +0.5 mm, lateral −2.0 mm, dorsal-ventral −1.5 mm (from surface of brain). […] Samples from the same animals were measured for the contents of mdivi-1, MPP+, DA, and its metabolites. […]

Data set [5] deals with T1, mouse dopamine transporter (Mus musculus, UniProt Q61327).
T1 construct: expressed in transfected cells; host or cells: EM4 cells / HEK 293 cells stably transfected with macrophage scavenger receptor
T1 sequence (Q61327 whole entry): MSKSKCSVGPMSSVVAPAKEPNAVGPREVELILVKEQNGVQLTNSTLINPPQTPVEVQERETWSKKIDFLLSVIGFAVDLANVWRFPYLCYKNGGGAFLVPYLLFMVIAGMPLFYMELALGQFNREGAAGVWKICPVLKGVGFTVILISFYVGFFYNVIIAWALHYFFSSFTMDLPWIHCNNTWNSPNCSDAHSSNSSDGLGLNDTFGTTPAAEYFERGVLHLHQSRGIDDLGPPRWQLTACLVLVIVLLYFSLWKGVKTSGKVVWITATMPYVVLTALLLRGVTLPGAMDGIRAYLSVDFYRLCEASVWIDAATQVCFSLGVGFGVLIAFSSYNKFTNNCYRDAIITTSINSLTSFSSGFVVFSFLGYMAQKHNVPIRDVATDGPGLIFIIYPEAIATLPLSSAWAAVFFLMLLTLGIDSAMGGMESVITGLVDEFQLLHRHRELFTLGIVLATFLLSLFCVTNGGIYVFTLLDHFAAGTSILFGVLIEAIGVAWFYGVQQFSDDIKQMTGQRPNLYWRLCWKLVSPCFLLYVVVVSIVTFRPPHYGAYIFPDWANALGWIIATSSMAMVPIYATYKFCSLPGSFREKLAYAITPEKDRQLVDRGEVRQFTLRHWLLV
Description: Transport studies in cells overexpressing dopamine transporter (MPP+ or DA uptake). The data set is classed as cell-based. To be noted: stable cells overexpressing DAT; substrates MPP+ or DA; mdivi-1 1 or 10 μM. Here is the method: EM4 cells and human embryonic kidney (HEK 293) cells stably transfected with macrophage scavenger to increase their adherence to tissue culture plastic, overexpressing mouse dopamine transporter or empty vector control were grown in 24-well plates. These cells were washed twice and then preincubated for 20 min at 37° C. in Krebs Ringer Hepes (KRH) buffer (125 mM NaCl, 25 mM HEPES, 5.6 mM glucose, 4.8 mM KCl, 1.2 mM KH2PO4, 1.2 mM CaCl2, 1.2 mM MgSO4, pH 7.4), in the presence or absence of mdivi-1 (1, or 10 μM) or GBR12909 (1 μM). This buffer was then replaced with KRH plus or minus MPP+ (200 μM) or dopamine (100 μM), in the presence or absence of mdivi-1 (1, or 10 μM) or GBR12909 (1 μM) for 30 min. To stop the reaction, cells were rinsed with ice-cold buffer and then immediately removed in 5% trichloroacetic acid, sonicated and centrifuged at 15,000 at 4° C. […]. Supernatant was collected for MPP+ and DA quantification using HPLC. Cell pellet was measured for protein concentration using the BCA assay.

Structures are written as SMILES.

On to `COc1cc(-n2c(S)nc3ccccc3c2=O)c(Cl)cc1Cl` [mdivi-1, 3-(2,4-dichloro-5-methoxyphenyl)-2-sulfanyl-4(3H)-quinazolinone], for which, in data set [1] (after an i.p. injection), the “time of peak of mdivi-1 in striatal dialysate” value was 3 h. Besides, the “mdivi-1 in the striatal dialysate (ability to cross the blood-brain barrier)” value in data set [1] (after i.p. injection, in vivo microdialysis, HPLC) is recorded as “detected”. Moreover, the “MPTP induced-loss of dopaminergic cell body terminals and DA content” value in data set [2] is reported as “significantly prevented”. In data set [3] (12 month old Pink1-/- mice, high-KCl aCSF), the “evoked DA overflow in Pink1-/- mice” value is listed as “complete restoration”. For the same compound, the “level of evoked DA release in Pink1+/+ mice” value in data set [3] (Pink1+/+ mice) is recorded as “did not alter”. Also, in data set [4], the “evoked DA overflow in MPTP-lesioned mice” value is listed as “improved” and the “regeneration of nigral DA neurons terminals or total DA content” value was “absence of promoting regeneration”. In data set [5], the “transport activity of DAT” value is reported as “did not affect”.
